Columns and labels:
hCD1d = molecular target: T1, hCD1d (Homo sapiens, UniProt P15813); assay: Loading of hCD1d tetramers with or without 0.05% Triton X-100, staining of hybridoma DN3A4.1-2; assay type: binding
T1 construct: made in house
From the text: (§1) The efficient loading of CD1 molecules with lipids such as αGalCer-C26:0 is known to involve cofactors that enhance the transfer of lipids from micelles or membranes into the antigen-binding groove of the CD1 protein. The best known of these cofactors are resident intracellular lipid binding and transfer proteins including those belonging to the saposin family, GM2 activator proteins, and Niemann-Pick type C1 and C2 proteins ([Zhou et al., 2004; Sagiv et al., 2006; Yuan et al., 2007; Schrantz et al., 2007]). Most of these are known to have detergent-like activities that facilitate solubilization of lipids and their exchange between hydrophobic binding sites. […]
(§2) Figure 5 Lack of Detergent-like Cofactor Dependence of Th2 Cell-Type Cytokine-Biasing αGalCer Analogs (A) Glycolipids were incubated for 24 hr at 37°C with murine CD1d proteins in the absence (top row) or presence (bottom row) of 0.05% Triton X-100. […] After washing, DN32.D3 iNKT hybridoma cells were added and supernatant concentrations of IL-2 were determined after an additional 14 hr of incubation. […]
(§3) Recombinant CD1d proteins were produced and assembled into tetramers for staining as previously described ([Forestier et al., 2007]). […] All samples were analyzed with the FACSCalibur flow cytometer (BD Biosciences).

human iNKT cells = assay: In vitro expansion of human iNKT cells from PBMC (FACS with 6B11 and anti-CD3); assay type: cell-based; conditions: 100 nM glycolipid, IL-2 and IL-7, day 7
Protocol: Figure S3. Responses of human iNKT cells to Th2 cell-type cytokine biasing […]
(A) For in vitro expansion of iNKT cells, 2 million human PBMC per well in 96 well plates were stimulated with 100 nM of glycolipids in the presence of IL-2 (60 IU/ml) and IL-7 (5 ng/ml). At day 7, cultures were harvested and analyzed by FACS using 6B11 (specific for the TCRα chain of iNKT cells) and anti-CD3 mAbs. Significant expansion of human […]
all glycolipids with the exception of OCH. Similar results were obtained in three independent experiments from 6 different donors.
(B) Cytokine production by a CD4+ human iNKT clone (HDD11) stimulated with human monocyte-derived dendritic cells pulsed with αGalCer analogues. For in vitro activation of human iNKT cells, 5 x 10^4 cloned iNKT cells per well were stimulated with 2.5 x104 […]

mCD1d [1] = molecular target: T2, mCD1d (Mus musculus, UniProt P11609); assay: In vitro CD1d loading assay with immobilized mCD1d, saposins or Triton X-100, DN32.D3 hybridoma IL-2 readout; assay type: biochemical; conditions: for effect of all four saposins on mCD1d loading: saposins 10 μg/ml
T2 sequence (P11609 22-305 limits assumed): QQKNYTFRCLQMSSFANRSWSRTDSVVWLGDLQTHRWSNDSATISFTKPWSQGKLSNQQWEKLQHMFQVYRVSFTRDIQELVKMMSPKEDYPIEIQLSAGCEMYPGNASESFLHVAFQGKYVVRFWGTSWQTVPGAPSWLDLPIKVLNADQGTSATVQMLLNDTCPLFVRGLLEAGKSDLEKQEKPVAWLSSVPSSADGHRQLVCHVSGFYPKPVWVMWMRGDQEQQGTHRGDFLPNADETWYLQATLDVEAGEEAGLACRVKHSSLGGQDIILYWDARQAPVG
T2 sequence (P01887 21-119 partner): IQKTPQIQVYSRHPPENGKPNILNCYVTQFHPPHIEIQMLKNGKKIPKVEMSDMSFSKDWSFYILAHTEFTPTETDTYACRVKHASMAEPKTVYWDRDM
Protocol: Figure 5 Lack of Detergent-like Cofactor Dependence of Th2 Cell-Type Cytokine-Biasing αGalCer Analogs (A) Glycolipids were incubated for 24 hr at 37°C with murine CD1d proteins in the absence (top row) or presence (bottom row) of 0.05% Triton X-100. The resulting complexes were assembled as tetramers and used for staining mouse iNKT hybridoma DN3A4.1-2. The dashed line histograms show background staining with unloaded tetramers, and the bold histograms show staining with glycolipid loaded tetramers. (B) The same analysis as in (A) except with human CD1d tetramers, which were also used for DN3A4.1-2 staining. (C) Glycolipids at various concentrations were incubated with immobilized mCD1d protein for 2 hr in pH 7.0 or pH 5.0 buffers with no additives (medium) or in the same buffers containing the indicated purified recombinant saposins (10 μg/ml) or Triton X-100 (0.05%). After washing, DN32.D3 iNKT hybridoma cells were added and supernatant concentrations of IL-2 were determined after an additional 14 hr of incubation. All results shown (A, B, and C) were representative of at least two independent experiments.
To extend these observations to a more physiological model, we tested the effects of purified recombinant saposin A, B, C, and D proteins on loading of αGalCer analogs.
Recombinant murine CD1d proteins at 4 μg/ml in 50 μl PBS were coated on the surfaces of microtiter plate wells for 2 hr at 37°C and then washed with PBS for removal of unbound proteins. Subsequently, various concentrations of glycolipids in 0.1 M sodium phosphate buffer (pH 7.0) or 0.1 M sodium citrate buffer (pH 5.0) containing 150 mM NaCl were incubated with or without 0.05% Triton X-100 or recombinant purified human saposins A, B, C, or D at 10 μg/ml for another 2 hr at 37°C. Saposins were produced and purified as described ([Yuan et al., 2007]). After extensive washing with PBS and media, 5 × 10^4 murine iNKT hybridoma DN32.D3 cells were added in 200 μl of complete medium and incubated at 37°C for 14 hr. Supernatants were analyzed for murine IL-2 by capture ELISA.

mCD1d [2] = molecular target: T2, mCD1d; assay: Loading of mCD1d tetramers with or without 0.05% Triton X-100, staining of hybridoma DN3A4.1-2; assay type: binding; conditions: 0.05% Triton X-100, 24 hr at 37°C
From the text: as §1, §2, §3

T1 sequence (P15813 20-301 limits assumed): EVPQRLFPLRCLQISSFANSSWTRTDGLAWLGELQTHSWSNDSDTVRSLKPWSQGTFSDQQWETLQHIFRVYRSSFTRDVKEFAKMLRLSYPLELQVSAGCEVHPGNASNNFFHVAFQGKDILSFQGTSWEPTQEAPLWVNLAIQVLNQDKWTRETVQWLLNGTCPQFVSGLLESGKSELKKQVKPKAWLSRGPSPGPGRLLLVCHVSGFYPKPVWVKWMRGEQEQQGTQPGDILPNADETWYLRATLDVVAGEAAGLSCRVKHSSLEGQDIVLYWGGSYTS
T1 sequence (P61769 21-119 partner): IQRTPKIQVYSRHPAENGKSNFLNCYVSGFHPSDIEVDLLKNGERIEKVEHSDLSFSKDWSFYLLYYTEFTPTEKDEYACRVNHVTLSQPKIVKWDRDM

CCCCCCCCCCCCCCCCCCCCCCCC(=O)NC(COC1OC(CO)C(O)C(O)C1O)C(O)C(O)CCCCC (stereo not shown) [OCH]
formation of hCD1d tetramers with iNKT cell-binding avidity (hCD1d): failed to form hCD1d tetramers with iNKT cell-binding avidity under any conditions | expansion of human iNKT cells (percentage of total viable lymphocytes) (human iNKT cells): exception

CCCCCCCCCCCCCCC(O)C(O)C(COC1OC(CO)C(O)C(O)C1O)NC(=O)CCCCCCCCC (stereo not shown) [αGalCer-C10:0]
effect of all four saposins on mCD1d loading (mCD1d [1]; acidic pH): reduced mCD1d loading | effect of all four saposins on mCD1d loading (mCD1d [1]; neutral pH): only modest enhancement

CCCCCCCCCCCCCCCCCCCCCCCC(=O)NC(COC1OC(CO)C(O)C(O)C1O)C(O)C(O)CCCCCCCCCCCCCC (stereo not shown) [αGalCer-C24:0]
effect of Triton X-100 on formation of mCD1d tetramers that bind iNKT cell TCRs (mCD1d [2]): clear enhancing effect

CCCCCCCCCCCCCCCCCCCCCCCCCC(=O)NC(COC1OC(CO)C(O)C(O)C1O)C(O)C(O)CCCCCCCCCCCCCC (stereo not shown) [αGalCer-C26:0, reference compound]
effect of Triton X-100 on formation of mCD1d tetramers that bind iNKT cell TCRs (mCD1d [2]): clear enhancing effect | cofactor dependence of mCD1d loading (mCD1d [1]; recombinant mCD1d, iNKT hybridoma IL-2 readout): dependent either on the presence of detergent (0.1% Triton X-100) or on the presence of a purified saposin

— publication PMC2719696, “Kinetics and Cellular Site of Glycolipid Loading Control the Outcome of Natural Killer T Cell Activation” (Immunity, 2009)
